Patent US10278957B2, “Opioid agonist peptides and uses thereof” (Protagonist Therapeutics, Inc., priority 2017, dated 2019)
Numbered stars: 1 amine (or outer) side, 2 acyl side, 3 side chain; on linkers, the order of the positions; unused ones are H or OH. Bridge positions count the residues as written; N and C are the ends. Square brackets hold non-standard residues; d marks the D form. Peptide text beside a SMILES is read from it. I, II: the chains in the order shown. Phe(2,6-Me2,4-CONH2) = Cc1cc(C(N)=O)cc(C)c1C[C@H](N)C(=O)O; Phe(4-CN) = N#Cc1ccc(C[C@H](N)C(=O)O)cc1; Phe(4-F) = N[C@@H](Cc1ccc(F)cc1)C(=O)O; Diglycolyl = O=C(COCC(=O)[*:2])[*:1]; Dmt = Cc1cc(O)cc(C)c1C[C@H](N)C(=O)O; dTic = O=C(O)[C@H]1Cc2ccccc2CN1; β3hF = N[C@H](CC(=O)O)Cc1ccccc1; dNMeA = CN[C@H](C)C(=O)O; Sar = CNCC(=O)O

Columns and labels:
μ-opioid receptor (MOR) = target: T1, μ-opioid receptor (MOR) (Homo sapiens, UniProt P35372); test: MOR agonist cAMP assay (HitHunter cAMP, forskolin-stimulated); format: cell-based
T1 construct: host or cells: cAMP Hunter CHO-K1 OPRM1 Gαi cell line
Method: (§1) The HitHunter® cAMP chemiluminescent assay kit (DiscoveRx, Cat# 90-0075 SM25) was used to detect cAMP production in cAMP Hunter™ Gαi cell lines over expressing either Human-ORPM1 (Discoverx, Catalog# 95-0107C2) or Human-ORPD1 (DiscoveRx, Catalog# 95-0108C2). Opioid agonist binding to the Gαi receptors inhibits the intracellular cAMP accumulation induced by forskolin, which activates adenylate cyclase and increases intracellular levels of cAMP.
(§2) Cells were cultured in media consisting of Ham's F-12 Nutrient Mix (Life Technologies, Catalog#31765035), 10% FBS (Life Technologies, Catalog# 16140-071), 4 mM GlutaMAX (Life Technologies, Catalog#35050-061), […] (Life Technologies), 100 ug/ml of Penn-Strep (Life Technologies) and 0.5 mg/ml Geneticin (Life Technologies, Catalog# 10131-027). The cultures were maintained at 37° C. under 5% CO2.
(§3) In preparation for cAMP assay, the cells were seeded at a density of 300,000 cells/ml in 100 ul of media/well in 96-well microplate. Wells that were designated for cAMP standards were left empty.
(§4) Opioid agonist serial dilutions were prepared in separate dilution plate (11-point series of 3× (3-fold) dilution) in Cell Assay buffer, including 3× forskolin for Gαi target. For Hunter CHO-K1 OPRM1 or CHO-K1 OPRD1 Gαi Cell Lines, the final forskolin concentration was 20 uM.
(§5) 15 ul of each 3× opioid agonist serial dilution was added in the presence of forskolin in duplicate to the designated wells. The final concentration of each dilution was at 3× of the final screening concentration. The assay plate was incubated for 30 min, at 37° C. under 5% CO2.
(§6) Cellular cAMP concentrations were measured using the HitHunter cAMP Assay kit following the manufacturer's protocol. HitHunter cAMP assay is a gain-of-signal competitive immunoassay based on Enzyme Fragment Complementation (EFC) technology. The kit uses β-galactosidase (β-gal) enzyme split into Enzyme Donor (ED) and Enzyme Acceptor (EA). The cellular cAMP and ED-labelled cAMP compete for anti-cAMP antibody. […] When cellular cAMP level is high, it competes for the anti-cAMP antibody, thereby releasing ED-cAMP to complement with EA to produce a luminescent signal. The amount of signal is directly proportional to the amount of cAMP in cells and can be quantified using cAMP standards. The assay plates were read using a PerkinElmer Envision instrument to detect the chemiluminescence signal in each well (luminescence reader at 0.1 to 1 second/well). Data analysis was performed using Graphpad Prism 7.EC50 was calculated by nonlinear regression, using the four-parameter hill equation.

δ-opioid receptor (DOR) = target: T2, δ-opioid receptor (DOR) (Homo sapiens, UniProt P41143); test: DOR agonist cAMP assay (HitHunter cAMP, forskolin-stimulated); format: cell-based
T2 construct: host or cells: cAMP Hunter CHO-K1 OPRD1 Gαi cell line
Method: as §1, §2, §3, §4, §5, §6

T2 sequence (P41143 whole entry): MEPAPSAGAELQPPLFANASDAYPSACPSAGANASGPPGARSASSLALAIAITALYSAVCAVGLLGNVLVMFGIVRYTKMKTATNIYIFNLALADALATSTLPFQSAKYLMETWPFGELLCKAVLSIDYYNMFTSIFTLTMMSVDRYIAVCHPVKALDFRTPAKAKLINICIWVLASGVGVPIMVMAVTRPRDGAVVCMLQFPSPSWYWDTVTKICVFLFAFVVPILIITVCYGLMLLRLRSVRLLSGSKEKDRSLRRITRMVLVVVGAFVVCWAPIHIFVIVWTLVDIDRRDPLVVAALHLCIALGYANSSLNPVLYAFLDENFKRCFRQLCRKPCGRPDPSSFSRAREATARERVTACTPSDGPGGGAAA
T1 sequence (P35372 whole entry): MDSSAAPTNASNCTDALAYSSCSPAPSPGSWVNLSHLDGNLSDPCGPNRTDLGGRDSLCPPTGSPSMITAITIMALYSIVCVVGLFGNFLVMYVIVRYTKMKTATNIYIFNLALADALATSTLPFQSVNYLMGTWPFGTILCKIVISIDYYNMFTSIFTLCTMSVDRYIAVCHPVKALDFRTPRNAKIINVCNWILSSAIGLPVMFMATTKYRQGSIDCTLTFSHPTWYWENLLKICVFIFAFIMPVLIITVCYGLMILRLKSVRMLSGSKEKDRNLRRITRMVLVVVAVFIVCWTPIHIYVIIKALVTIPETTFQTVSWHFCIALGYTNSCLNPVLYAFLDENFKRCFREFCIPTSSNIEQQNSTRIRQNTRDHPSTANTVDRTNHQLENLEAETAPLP

Compound | EC50 (μ-opioid receptor (MOR)) | EC50 (δ-opioid receptor (DOR))
CCCC[C@@H](C(=O)O)N(C)C(=O)C[C@H](Cc1cccc(C)c1)NC(=O)CNC(=O)[C@@H](C)NC(=O)[C@@H](N)Cc1c(C)cc(O)cc1C [compound 141] | < 1 nM | < 1 nM
CCCC[C@@H](C(=O)O)N(C)C(=O)C[C@H](Cc1cccc(C)c1)NC(=O)CNC(=O)[C@@H](C)NC(=O)[C@@H](N)Cc1c(C)cc(C(N)=O)cc1C [compound 164] | < 1 nM | < 1 nM
Cc1cc(O)cc(C)c1C[C@H](N)C(=O)N[C@H](CC(=O)O)C(=O)NCC(=O)N[C@H](CC(=O)N(C)[C@@H](CC1CCCCC1)C(=O)O)Cc1ccccc1 [compound 175] | < 1 nM | < 1 nM
Cc1cc(O)cc(C)c1C[C@H](N)C(=O)N[C@H](CCCNC(=N)N)C(=O)N[C@@H](Cc1ccc(F)cc1)C(=O)N(C)CC(N)=O [compound 19] (H-[Dmt][dR][Phe(4-F)][Sar]-NH2) | < 1 nM | 1 to 10 nM
CCCC[C@@H](C(=O)O)N(C)C(=O)C[C@H](Cc1c[nH]c2ccccc12)NC(=O)CNC(=O)[C@@H](C)NC(=O)[C@@H](N)Cc1c(C)cc(O)cc1C [compound 153] | 1 to 10 nM | < 1 nM
CCCC[C@@H](C(=O)O)N(C)C(=O)C[C@H](Cc1ccc(O)cc1)NC(=O)CNC(=O)[C@@H](C)NC(=O)[C@@H](N)Cc1c(C)cc(O)cc1C [compound 152] | < 1 nM | < 1 nM
Cc1cc(O)cc(C)c1C[C@H](N)C(=O)N[C@H](C)C(=O)NCC(=O)N[C@H](CC(=O)N(C)CC(=O)N[C@H](CCCCNC(=O)COCC(=O)NCCCC[C@@H](NC(=O)CN(C)C(=O)C[C@H](Cc1ccccc1)NC(=O)CNC(=O)[C@@H](C)NC(=O)[C@@H](N)Cc1c(C)cc(O)cc1C)C(N)=O)C(N)=O)Cc1ccccc1 [compound 271] (I: H-[Dmt][dA]G[β3hF][Sar][dK]-NH2 / II: H-[Dmt][dA]G[β3hF][Sar][dK]-NH2; linker I:6-II:6 via Diglycolyl) | 1 to 10 nM | 1 to 10 nM
Cc1cc(O)cc(C)c1C[C@H](N)C(=O)NC(C)(C)C(=O)NCC(=O)N[C@H](CC(=O)N(C)CC(N)=O)Cc1ccccc1 [compound 90] | < 1 nM | 1 to 10 nM
Cc1cc(C(N)=O)cc(C)c1C[C@H](N)C(=O)N[C@H](C)C(=O)NCC(=O)N[C@H](CC(=O)N(C)[C@@H](CC1CCCCC1)C(=O)O)Cc1ccccc1 [compound 98] | 1 to 10 nM | 1 to 10 nM
Cc1cc(O)cc(C)c1C[C@H](N)C(=O)N(C)[C@H](C)C(=O)N[C@@H](Cc1ccccc1)C(=O)N(C)CC(N)=O [compound 10] (H-[Dmt][dNMeA]F[Sar]-NH2) | < 1 nM | 1 to 10 nM
CCCC[C@@H](C(=O)O)N(C)C(=O)C[C@H](Cc1ccccc1Br)NC(=O)CNC(=O)[C@@H](C)NC(=O)[C@@H](N)Cc1c(C)cc(O)cc1C [compound 146] | < 1 nM | < 1 nM
Cc1cc(O)cc(C)c1C[C@H](N)C(=O)N[C@H](CC(=O)O)C(=O)NCC(=O)N[C@H](CC(=O)N(C)[C@@H](CC(C)C)C(=O)O)Cc1ccccc1 [compound 169] | < 1 nM | < 1 nM
CCCC[C@@H](C(=O)O)N(C)C(=O)C[C@H](Cc1ccc(C)cc1)NC(=O)CNC(=O)[C@@H](C)NC(=O)[C@@H](N)Cc1c(C)cc(O)cc1C [compound 142] | 1 to 10 nM | < 1 nM
Cc1cc(O)cc(C)c1C[C@H](N)C(=O)N[C@H](C)C(=O)NCC(=O)N[C@H](CC(=O)N[C@@H](Cc1ccc2ccccc2c1)C(N)=O)Cc1ccccc1 [compound 114] | 1 to 10 nM | 1 to 10 nM
Cc1cc(O)cc(C)c1C[C@H](N)C(=O)N[C@H](CC(=O)O)C(=O)NCC(=O)N[C@H](CC(=O)N(C)[C@H](C(=O)O)C(C)C)Cc1ccccc1 [compound 173] | < 1 nM | < 1 nM
CCC[C@@H](C(=O)O)N(C)C(=O)C[C@H](Cc1ccccc1)NC(=O)CNC(=O)[C@@H](CC(=O)O)NC(=O)[C@@H](N)Cc1c(C)cc(O)cc1C [compound 174] | < 1 nM | < 1 nM
Cc1cc(C(N)=O)cc(C)c1C[C@H](N)C(=O)NC(C)(C)C(=O)NCC(=O)N[C@H](CC(=O)N(C)CC(N)=O)Cc1ccccc1 [compound 75] | < 1 nM | 10 to 50 nM
Cc1cc(O)cc(C)c1C[C@H](N)C(=O)N[C@H](C)C(=O)NCC(=O)N[C@H](CC(=O)N(C)[C@@H](Cc1ccc(O)cc1)C(=O)O)Cc1ccccc1 [compound 160] | < 1 nM | < 1 nM

Compound | EC50 (μ-opioid receptor (MOR)) | EC50 (δ-opioid receptor (DOR))
CCC[C@@H](C(N)=O)N(C)C(=O)C[C@H](Cc1ccccc1)NC(=O)CNC(=O)[C@@H](C)NC(=O)[C@@H](N)Cc1c(C)cc(O)cc1C [compound 184] | < 1 nM | < 1 nM
Cc1cc(O)cc(C)c1C[C@H](N)C(=O)N[C@H](CCCNC(=N)N)C(=O)N[C@@H](Cc1ccc(C#N)cc1)C(=O)N(C)CC(N)=O [compound 20] (H-[Dmt][dR][Phe(4-CN)][Sar]-NH2) | 1 to 10 nM | < 1 nM
CCCC[C@@H](C(=O)O)N(C)C(=O)C[C@H](Cc1cccc(Cl)c1)NC(=O)CNC(=O)[C@@H](C)NC(=O)[C@@H](N)Cc1c(C)cc(O)cc1C [compound 151] | < 1 nM | < 1 nM
CC[C@H](C)[C@@H](C(=O)O)N(C)C(=O)C[C@H](Cc1ccccc1)NC(=O)CNC(=O)[C@@H](CC(=O)O)NC(=O)[C@@H](N)Cc1c(C)cc(O)cc1C [compound 172] | < 1 nM | < 1 nM
Cc1cc(C(N)=O)cc(C)c1C[C@H](N)C(=O)N[C@H](C)C(=O)NCC(=O)N[C@H](CC(=O)N(C)[C@@H](Cc1c[nH]c2ccccc12)C(=O)O)Cc1ccccc1 [compound 106] | 1 to 10 nM | 1 to 10 nM
Cc1cc(O)cc(C)c1C[C@H](N)C(=O)N[C@H](CCC(=O)O)C(=O)NCC(=O)N[C@H](CC(=O)N(C)CC(N)=O)Cc1ccccc1 [compound 187] | < 1 nM | 1 to 10 nM
CCCC[C@@H](C(=O)O)N(C)C(=O)C[C@H](Cc1c[nH]c2ccccc12)NC(=O)CNC(=O)[C@@H](C)NC(=O)[C@@H](N)Cc1c(C)cc(C(N)=O)cc1C [compound 139] | < 1 nM | 1 to 10 nM
Cc1cc(O)cc(C)c1C[C@H](N)C(=O)N[C@H](C)C(=O)NCC(=O)N[C@H](CC(=O)N(C)[C@@H](CC1CCCCC1)C(=O)O)Cc1ccccc1 [compound 156] | < 1 nM | 1 to 10 nM
Cc1cc(O)cc(C)c1C[C@H](N)C(=O)N[C@@H](C(=O)NCC(=O)N[C@H](CC(=O)N(C)[C@@H](C)C(=O)O)Cc1ccccc1)[C@H](C)O [compound 183] | < 1 nM | < 1 nM
Cc1cc(C(N)=O)cc(C)c1C[C@H](N)C(=O)N[C@H](C)C(=O)NCC(=O)N[C@H](CC(=O)N(C)[C@@H](Cc1ccccc1)C(=O)O)Cc1ccccc1 [compound 100] | 1 to 10 nM | 1 to 10 nM
CC(=O)Nc1ccc(C[C@H](N)C(=O)N[C@H](C)C(=O)NCC(=O)N[C@H](CC(=O)N(C)CC(N)=O)Cc2ccccc2)cc1 [compound 59] | 10 to 50 nM | 50 to 200 nM
Cc1cc(O)cc(C)c1C[C@H](N)C(=O)N[C@H](C)C(=O)NCC(=O)N[C@H](CC(=O)N(CC(N)=O)CC(F)(F)F)Cc1ccccc1 [compound 122] | < 1 nM | < 1 nM
Cc1cc(O)cc(C)c1C[C@H](N)C(=O)N[C@H](CCCNC(=N)N)C(=O)N[C@@H](CCc1ccccc1)C(=O)N(C)CCC(=O)O [compound 12] | < 1 nM | < 1 nM
Cc1cc(O)cc(C)c1C[C@H](N)C(=O)N1Cc2ccccc2C[C@@H]1C(=O)NCC(=O)N[C@@H](Cc1ccccc1)C(=O)N(C)CC(N)=O [compound 45] (H-[Dmt][dTic]GF[Sar]-NH2) | < 1 nM | < 1 nM
CCCC[C@@H](C(=O)O)N(C)C(=O)C[C@H](Cc1ccc(I)cc1)NC(=O)CNC(=O)[C@@H](C)NC(=O)[C@@H](N)Cc1c(C)cc(O)cc1C [compound 150] | < 1 nM | < 1 nM
CC[C@H](C)[C@@H](C(=O)O)N(C)C(=O)C[C@H](Cc1ccccc1)NC(=O)CNC(=O)[C@H](NC(=O)[C@@H](N)Cc1c(C)cc(O)cc1C)[C@H](C)O [compound 182] | < 1 nM | < 1 nM
Cc1cc(C(N)=O)cc(C)c1C[C@H](N)C(=O)NCC(=O)NCC(=O)N[C@H](CC(=O)N(C)CC(N)=O)Cc1ccccc1 [compound 74] (H-[Phe(2,6-Me2,4-CONH2)]GG[β3hF][Sar]-NH2) | < 1 nM | < 1 nM
